Data on two compounds can be found in patent US10744109B2, “Sustained release suspension containing dezocine analogue ester and preparation method therefor” (SHANDONG DANHONG PHARMACEUTICAL CO., LTD., priority 2017, dated 2020).

Series [1] can be described thus: Study of pharmacokinetics, intramuscular injection in male rats. The format is in vivo. Particulars: whole blood, im, rat; for AUC: read-out: AUC0=last. On the procedure:
Study of Pharmacokinetics
3 Male rats for each group, the compound as shown in formula (I) was administered by intramuscular injection. Whole blood samples were collected at 0.25, 0.50, 1.0, 2.0, 4.0, 8.0, 12.0, 24.0 and 48.0 hour(s) after administration of the aqueous suspension group. Whole blood samples were collected at 0.25, 0.50, 2.0, 4.0, 8.0, 10.0, 24.0, 48.0, 72.0, 96.0, 120.0 and 144.0 hour(s) after administration of the oil suspension group. After precipitating the protein with acetonitrile/methanol, the supernatant was collected for sampling and the blood concentration of the compound was determined by LC-MS/MS. The non-compartment model linear logarithmic trapezoid method was used to calculate the pharmacokinetic parameters of the compounds as shown in formula (I) and formula (II) respectively by using WinNonlin™ Version 6.3 (Pharsight, Mountain View, Calif.) pharmacokinetic software.

The conditions of series [2]: releases formula (II) after hydrolysis in vivo; cited from earlier work.
The conditions of series [3]: cited from earlier work.
The conditions of series [4]: in vivo, prepared as an aqueous solution; cited from earlier work.
Where [5] appears, read: intramuscular injection of aqueous suspension of formula (I), 17.5 μM/Kg.
Where [6] appears, read: intramuscular injection of oil suspension of formula (I), 51.4 μM/Kg.
Where [7] appears, read: intramuscular injection of oil suspension of formula (I), 51.4 μM/Kg, 44.50 mg/mL, 0.25% Tween 80, medium chain triglyceride.

Read-outs that look alike come from different tables or passages of the source.

For `C[C@@]12CCCCC[C@@H](Cc3c(F)cc(O)cc31)[C@@H]2N` [formula (II)], in series [1] (setting [5]), the AUC(0-inf) was determined as 5.81 µM·h, the time to peak (Tmax) was 4 h, the half-life was 7.52 h and the AUC was determined as 5.71 µM·h. In addition, the peak level in series [1] (intramuscular injection of aqueous suspension of formula (I), 17.5 μM/Kg, 25 μm/mL, 1% Tween 20, 7.5% PEG 1000, 0.75% citric acid monohydrate) (Cmax) was 438 nM. For the same compound, in series [1] (setting [6]), the AUC(0-inf) turned out to be 10.4 µM·h, the Tmax was 2 h, the half-life is 24.1 h and the AUC came out at 10.1 µM·h. In series [1] (setting [7]), this compound displayed a Cmax of 378 nM.

Consider `C[C@@]12CCCCC[C@@H](Cc3c(F)cc(OC(=O)CCCCCCCCC(=O)Oc4cc(F)c5c(c4)[C@@]4(C)CCCCC[C@@H](C5)[C@@H]4N)cc31)[C@@H]2N` [formula (I)], for which, in series [1] (setting [6]), the Tmax came out at 0.25 h and the AUC was determined as 0.11 µM·h. Moreover, the highest level in series [1] (setting [7]) (Cmax) was 5.05 nM. Further, the stability in plasma result in series [2] is listed as “unstable”. In addition, the “solubility in oil solution” value in series [3] (oil solution) is “hardly soluble or insoluble”. The solubility in water entry in series [3] (water) is reported as “slightly soluble”. For the same compound, in series [4], the clearance rate result is reported as “too fast” and the half-life entry is given as “short”.

As a reminder, the AUC(0-inf) is total exposure, with the tail of the curve extrapolated. The low end stands for less exposure, the high end for more exposure. As a reminder, the Tmax is the time from dosing to the highest level. The half-life is the time needed for the level to fall by half in the phase considered. Usually Cmax stands for the peak of the concentration-time curve.
